From patent US20240024403A1, “Compositions and Methods for Managing Weight” (Unigen, Inc., priority 2012, published 2024)

What was measured:
[1] = High fat diet induced obesity (DIO) rat model; assay type: in vivo, Spraue-Dawley rats; settings: for Total Body Weight: in g (unit assumed)
Description: Male Spraue-Dawley rats, age 4-6 weeks (OrientBio, Inc.; Seongnam, Korea) were housed individually in Polycarbonate cages in a room with a 12 hr:12 hr light-dark cycle and an ambient temperature of 24° C. All the rats were fed a commercial chow diet for 1 week after arrival in the animal facility. Rats were then divided into normal and obesity groups and fed with normal diet (ND) and high fat diets (HFD) respectively. The HFD group was divided into multiple treatment groups: a high fat diet vehicle group (HFD), an orlistat (purchased as OTC drug Alli®) positive control treatment group (ORI, 80 mg/kg of animal weight, 2 times/day). In some examples, sibutramine was used as a positive control (SIB, 3 mg/kg for rat studies and […] for mice studies).
Body weight was measured once or twice per week and feed intake was measured twice per week. Body weight gain was determined for each study group by measurement of the body weight difference for each study group between each successive week of the study. At the end of the experimental period, following a 12-h fasting period, the animals were anesthetized with ether, and blood was drawn from the abdominal vein. Liver and kidney and adipose tissues (epididymal, retroperitoneal, perirenal adipose tissues) were removed from each animal, rinsed with physiological saline, and weighted. Serum concentrations of glucose, total cholesterol and LDL-cholesterol were determined using automatic analyzer (INTEGRA 400, Roche, Germany). Statistical significance of test results was performed by Student's t-test.

leptin = test: Plasma leptin level in DIO mice (ELISA); assay type: in vivo
Description: (§1) Obese mice were treated with various three component compositions to test the anti-obesity and appetite effects of such compositions. Three component Composition 1 (Magnolia:Morus:Yerba Mate) produced according to the Example 38, three component Composition 2 (Magnolia:Morus:Mutamba) produced according to the Example 42, three component Composition 3 (Morus: Rosemary:Yerba Mate) produced according to the Example 39, and three component Composition 9 (Morus:Rosemary:Areca) produced according to the Example 41, were each separately administrated orally to DIO mice as described in the Example 48. The high fat diet (HFD) mice were divided into multiple treatment groups with a total of 10 animals per group. The mice were treated with one of the following: Composition 1 (1300 mg/kg/day), Composition 2 (1300 mg/kg/day), Composition 3 (1700 mg/kg/day), or Composition 9 (1700 mg/kg/day). Control groups included a normal diet group given vehicle only (ND, negative control), a high fat diet group given vehicle only (HFD, negative control), an orlistat group (ORI, 40 mg/kg, 2 times/day, positive control), and a sibutramine group (10 mg/kg, 1 time/day, positive control). Body weight and feed intake were measured daily for 2 weeks after treatment and then twice a week until the end of the 7 week study. At week 2 and week 7 after treatment, mice were fasted for 16 hours and then five animals were examined to measure plasma concentrations of leptin and ghrelin. Leptin and ghrelin levels were measured by using commercial ELISA kits specific for leptin or ghrelin (Millipore Co., Billerica, MA) according to the manufacturer's instructions. Measurements were taken using a microplate reader (Victor™ X3, PerkinElmer Inc., USA) and analyzed with PerkinElmer 2030 workstation computer software.

ghrelin = test: Plasma active ghrelin level in DIO mice (ELISA); assay type: in vivo
Description: as §1

CCK peptide = CCK peptide levels in DIO mice (CCK ELISA); assay type: in vivo; settings: mice on high fat diet; after 7 weeks of administering; % ± SD
Description: Therefore, the effect on CCK peptide levels in mice from treatment with Composition 2 (Magnolia:Morus:Mutamba), produced according to the Example 42, or Composition 3 (Morus:Rosemary:Yerba Mate), produced according to the Example 39, was examined to determine the extent to which weight gain and/or appetite were affected through this peptide hormone pathway. Briefly, CCK peptide levels were measured after 7 weeks of administering Compositions […] and 3 to mice on a high fat diet as described in Example 48. Negative controls include mice on a normal diet (NC) and mice on a high fat diet (HFD), each group administered vehicle only. The positive controls were orlistat and sibutrimine. CCK levels were detected using a CCK ELISA assay kit according to the manufacturer's instructions (Abnova, Taipei City, Tiawan). Measurements were performed using microplate reader Victor™ X3 (PerkinElmer Inc., Waltham, MA) and computer software on the PerkinElmer 2030 workstation.

[2] = SIB 3 mg/kg, DIO rats, blood at end of study
[3] = SIB 3 mg/kg, rats fed a high fat diet
[4] = SIB 3 mg/kg, rats fed a high fat diet, 42 days
[5] = DIO mice plasma, 2-week treatment
[6] = DIO mice plasma, 7-week treatment

CC(C)CC(N(C)C)C1(c2ccc(Cl)cc2)CCC1 (centres unmarked) [SIB, sibutramine]
Fasting Glucose [1, 2]: 136.00 mg/dL | T-chol [1, 2]: 106.60 mg/dL | Triglyceride [1, 2]: 41.10 mg/dL | Fat Deposit Weight: Epididymal Fat [1, 3]: 6.698 | Fat Deposit Weight: Perirenal Fat [1, 3]: 1.562 | Fat Deposit Weight: Retroperitoneal Fat [1, 3]: 3.190 | Fat Deposit Weight: Total Fat [1, 3]: 11.450 | Food Efficiency Ratio (FER) [1, 4]: 0.155 | Food Intake [1, 4]: 13.880 g/day | Weight Gain [1, 4]: 2.160 g/day | Total Body Weight ([1]; day 0, SIB 3 mg/kg, DIO rats): 364.15 | Total Body Weight ([1]; day 1, SIB 3 mg/kg, DIO rats): 368.06 | Weight Gain ([1]; day 1 vs day 0, SIB 3 mg/kg, DIO rats): 3.91 | Total Body Weight ([1]; day 2, SIB 3 mg/kg, DIO rats): 356.78 | Weight Gain ([1]; day 2 vs day 0, SIB 3 mg/kg, DIO rats): −7.37 | Total Body Weight ([1]; day 3, SIB 3 mg/kg, DIO rats): 357.21 | Weight Gain ([1]; day 3 vs day 0, SIB 3 mg/kg, DIO rats): −6.94 | Total Body Weight ([1]; day 4, SIB 3 mg/kg, DIO rats): 358.78 | Weight Gain ([1]; day 4 vs day 0, SIB 3 mg/kg, DIO rats): −5.37 | Total Body Weight ([1]; day 7, SIB 3 mg/kg, DIO rats): 368.11 | Weight Gain ([1]; day 7 vs day 0, SIB 3 mg/kg, DIO rats): 3.96 | Total Body Weight ([1]; day 10, SIB 3 mg/kg, DIO rats): 377.69 | Weight Gain ([1]; day 10 vs day 0, SIB 3 mg/kg, DIO rats): 13.54 | Total Body Weight ([1]; day 14, SIB 3 mg/kg, DIO rats): 388.70 | Weight Gain ([1]; day 14 vs day 0, SIB 3 mg/kg, DIO rats): 24.55 | Total Body Weight ([1]; day 18, SIB 3 mg/kg, DIO rats): 395.38 | Weight Gain ([1]; day 18 vs day 0, SIB 3 mg/kg, DIO rats): 31.23 | Total Body Weight ([1]; day 21, SIB 3 mg/kg, DIO rats): 407.06 | Weight Gain ([1]; day 21 vs day 0, SIB 3 mg/kg, DIO rats): 42.91 | Total Body Weight ([1]; day 24, SIB 3 mg/kg, DIO rats): 414.91 | Weight Gain ([1]; day 24 vs day 0, SIB 3 mg/kg, DIO rats): 50.75 | Total Body Weight ([1]; day 28, SIB 3 mg/kg, DIO rats): 425.99 | Weight Gain ([1]; day 28 vs day 0, SIB 3 mg/kg, DIO rats): 61.84 | Total Body Weight ([1]; day 31, SIB 3 mg/kg, DIO rats): 432.32 | Weight Gain ([1]; day 31 vs day 0, SIB 3 mg/kg, DIO rats): 68.17 | Total Body Weight ([1]; day 35, SIB 3 mg/kg, DIO rats): 442.55 | Weight Gain ([1]; day 35 vs day 0, SIB 3 mg/kg, DIO rats): 78.40 | Total Body Weight ([1]; day 38, SIB 3 mg/kg, DIO rats): 447.66 | Weight Gain ([1]; day 38 vs day 0, SIB 3 mg/kg, DIO rats): 83.51 | Total Body Weight ([1]; day 42, SIB 3 mg/kg, DIO rats): 454.96 | Weight Gain ([1]; day 42 vs day 0, SIB 3 mg/kg, DIO rats): 90.81 | blood biochemistry parameters vs HFD group ([1]; sibutramine 3 mg/kg): no statistically significant changes compared to the HFD group for any of the measured endpoints | body weight gain vs HFD group ([1]; sibutramine 3 mg/kg): statistically significant decreases in body weight gains from day 2 to completion of the study on day 42 | organ and fat pad weights vs HFD group ([1]; sibutramine 3 mg/kg): statistically significant decreases in all categories of fat measurement | total body weight vs HFD group ([1]; sibutramine 3 mg/kg): statistically significant reduction in body weight at day 2 through the remainder of the study (day 42) | weight gain per day, food intake per day, food efficiency ratio (FER) vs HFD group ([1]; sibutramine 3 mg/kg): statically lower values than the HFD group for Weight Gain per day, Food Intake per day, and Food Efficiency Ratio | Leptin (ng/ml) 2-week (leptin; [5]): 17.0 ± 0.43 ng/mL | Leptin (ng/ml) 7-week (leptin; [6]): 20.4 ± 0.00 ng/mL | plasma leptin level vs HFD group (leptin; week 2 and week 7, Composition 2 1300 mg/kg/day, orlistat 40 mg/kg 2 times/day, sibutramine 10 mg/kg 1 time/day): somewhat reduced leptin level after 2 weeks of treatment | Active Ghrelin (pg/ml) 2-week (ghrelin; [5]): 1001.3 pg/mL | Active Ghrelin (pg/ml) 7-week (ghrelin; [6]): 600.1 pg/mL | active ghrelin level vs HFD group (ghrelin; week 2 and week 7, orlistat 40 mg/kg 2 times/day, sibutramine 10 mg/kg 1 time/day): no effect on active ghrelin levels at either week 2 or week 7 | % CCK binding (CCK peptide): 12.3 ± 1.6%
